Test: refractive index (Na D-line) (dimensionless); xn = mol fraction of the nth substance listed
Settings: 101 kPa, Liquid, Standard Abbe refractometry

C=CC(C)(O)CCC=C(C)C (stereo not drawn) [3,7-dimethyl-1,6-octadien-3-ol] + CCO
refractive index
Settings | 283.15 K | 298.15 K | 313.15 K | 328.15 K
x1 = 0.0471 | – | – | – | 1.3611
x1 = 0.0493 | – | – | 1.3678 | –
x1 = 0.0506 | 1.38013 | 1.37416 | – | –
x1 = 0.1008 | 1.39241 | 1.38626 | 1.37996 | 1.37358
x1 = 0.1969 | 1.41091 | 1.40451 | 1.39788 | 1.39102
x1 = 0.2884 | 1.42392 | – | – | –
x1 = 0.2895 | – | 1.4175 | 1.41061 | 1.4036
x1 = 0.388 | 1.43469 | 1.42801 | – | –
x1 = 0.3957 | – | – | 1.42171 | 1.41452
x1 = 0.4803 | 1.44248 | – | – | –
x1 = 0.4834 | – | 1.4359 | 1.42883 | 1.42158
x1 = 0.56 | 1.44799 | – | – | –
x1 = 0.593 | – | 1.44306 | 1.43594 | 1.42859
x1 = 0.6838 | 1.45474 | 1.44779 | 1.44061 | 1.43327
x1 = 0.7832 | 1.45921 | – | – | –
x1 = 0.8438 | – | 1.45451 | 1.44732 | 1.43989
x1 = 0.8941 | 1.46319 | 1.45612 | 1.4489 | 1.4415
x1 = 0.9286 | 1.46443 | – | 1.45004 | 1.44266
x1 = 0.9337 | – | 1.45748 | – | –
x1 = 1 | 1.4666 | 1.45946 | 1.45215 | 1.44473

— the NIST ThermoML archive (doi:10.1016/j.fluid.2011.06.011)
